In patent US9523100B2, “Pesticidal compositions and related methods” (DOW AGROSCIENCES LLC, priority 2013, dated 2016):
Like-named read-outs stand apart in the source and are kept apart here.

Key:
[1] = tested on: Green Peach Aphid (GPA) (Myzus persicae) (MYZUPE); experiment: Bioassay for Green Peach Aphid (GPA), foliar spray on cabbage seedlings; format: in vivo; conditions: 72 h, read-out: GPA 200 ppm, % Control (or Mortality) rating
Text: Bioassay for Green Peach Aphid (GPA) (Myzus persicae) (MYZUPE)
The green peach aphid (Myzus persicae) is the most significant aphid pest of peach trees, causing decreased growth, shriveling of the leaves, and the death of various tissues. It is also hazardous because it acts as a vector for the transport of plant viruses, such as potato virus Y and potato leafroll virus to members of the nightshade/potato family Solanaceae, and various mosaic viruses to many other food crops. GPA attacks such plants as broccoli, burdock, cabbage, carrot, cauliflower, daikon, eggplant, green beans, lettuce, macadamia, papaya, peppers, sweet potatoes, tomatoes, watercress, and zucchini, among other plants GPA also attacks many ornamental crops such as carnation, chrysanthemum, flowering white cabbage, poinsettia, and roses. GPA has developed resistance to many pesticides.
Cabbage seedlings grown in 3-inch pots, with 2-3 small (3-5 cm) true leaves, were used as test substrate. The seedlings were infested with 20-50 GPA (wingless adult and nymph stages) one day prior to chemical application. Four pots with individual seedlings were used for each treatment. Test compounds (2 mg) were dissolved in 2 mL of acetone/methanol (1:1) solvent, forming stock solutions of 1000 ppm test compound. The stock solutions were diluted 5× with 0.025% Tween 20 in water to obtain the solution at 200 ppm test compound. A hand-held aspirator-type sprayer was used for spraying a solution to both sides of […] leaves until runoff. Reference plants (solvent check) were sprayed with the diluent only containing 20% by volume of acetone/methanol (1:1) solvent. Treated plants were held in a holding room for three days at approximately 25° C. and ambient relative humidity (RH) prior to grading. Evaluation was conducted by counting the number of live aphids per plant under a microscope. Percent control was measured by using Abbott's correction formula (W. S. Abbott, “A Method of Computing the Effectiveness of an Insecticide” J. Econ. Entomol. 18 (1925), pp. 265-267) as follows. Corrected % Control=100*(X−Y)/X
X=No. of live aphids on solvent check plants and
Y=No. of live aphids on treated plants
Biological Data for Green Peach Aphid (GPA) (MYZUPE) and Sweetpotato Whitefly-Crawler (WF) (BEMITA)” (see table section).
(§1) The mortality efficiency of the pesticidal compounds against GPA and WF insects was determined after treatment.

[2] = tested on: Sweetpotato Whitefly-Crawler (WF) (Bemisia tabaci) (BEMITA); experiment: Insecticidal test for Sweetpotato Whitefly-Crawler (WF) in foliar spray assay on cotton plants; format: in vivo; conditions: 216 h, read-out: WF 200 ppm, % Control (or Mortality) rating
Text: Insecticidal Test for Sweetpotato Whitefly-Crawler (WF) (Bemisia tabaci) (BEMITA) in Foliar Spray Assay
The sweetpotato whitefly (Bemisia tabaci) has been reported as a serious pest of cultivated crops world-wide. It has an extremely wide host range attacking more than 500 species of plants from 63 plant families. Weeds often serve as alternate hosts of crop pests. Direct feeding damage is caused by the piercing and sucking sap from the foliage of plants. This feeding causes weakening and early wilting of the plant and reduces the plant growth rate and yield Indirect damage results by the accumulation of honeydew produced by the whiteflies. Honeydew serves as a substrate for the growth of black sooty mold on leaves and fruit reducing photosynthesis and lessens the market value of the plant or yield. […] The sweetpotato whitefly is considered the most common and important whitefly vector of plant viruses worldwide.
Cotton plants (Gossypium hirsutum) grown in 3-inch pots, with 1 small (4-5 cm) true leaves, were used as test substrate. The plants were infested with 200-400 whitefly eggs 4-5 days prior to chemical application. Four pots with individual plants were used for each treatment. Test compounds (2 mg) were dissolved in 1 mL of acetone solvent, forming stock solutions of 2000 ppm test compound. The stock solutions were diluted 10× with 0.025% Tween 20 in water (diluents) to obtain the solution at 200 ppm test compound. A hand-held aspirator-type sprayer was used for spraying a solution to both sides of cotton leaves until runoff. Reference plants (solvent check) were sprayed with the diluent only containing 10% by volume of acetone solvent. Treated plants were held in a holding room for 9 days at approximately 25° C. and ambient relative humidity (RH) prior to grading. Evaluation was conducted by counting the number of live 3-4 nymph stage per plant under a microscope. Percent control was measured by using Abbott's correction formula (W. S. Abbott, “A Method of Computing the Effectiveness of an Insecticide” J. Econ. Entomol. 18 (1925), pp. 265-267) as follows.
Biological Data for Green Peach Aphid (GPA) (MYZUPE) and Sweetpotato Whitefly-Crawler (WF) (BEMITA)” (see table section). Corrected % Control=100*(X−Y)/X
X=No. of live nymphs on solvent check plants and
Y=No. of live nymphs on treated plants
as §1

[3] = 200 ppm foliar spray on cabbage seedlings, graded after three days, Abbott corrected % control
[4] = 200 ppm foliar spray on cotton plants, graded after 9 days, Abbott corrected % control

SMILES	mortality at 200 ppm [1, 3] [%]	mortality at 200 ppm [2, 4] [%]	mortality at 200 ppm ([1]; foliar) [%]	mortality at 200 ppm ([2]; foliar) [%]
CCN(C(=O)C1CCCN(C(=O)CCC(F)(F)F)C1)c1cn(-c2cccnc2)nc1Cl (stereo not shown) [FA43, N-(3-Chloro-1-(pyridin-3-yl)-1H-pyrazol-4-yl)-N-ethyl-1-(4,4,4-trifluorobutanoyl)piperidine-3-carboxamide]	80 to 100	80 to 100		
CCN(C(=O)C(C)C/C=N\OCCC1CC1(F)F)c1cn(-c2cccnc2)nc1Cl (stereo not shown) [FA59, (Z)-N-(3-Chloro-1-(pyridin-3-yl)-1H-pyrazol-4-yl)-4-((2-(2,2-difluorocyclopropyl)ethoxy)imino)-N-ethyl-2-methylbutanamide]	80 to 100	80 to 100		
CCN(C(=O)CC/C(=N\OCc1ccc(C(F)(F)F)nc1)c1cccs1)c1cn(-c2cccnc2)nc1Cl [FA36, (E)-N-(3-Chloro-1-(pyridin-3-yl)-1H-pyrazol-4-yl)-N-ethyl-4-(thiophen-2-yl)-4-(((6-(trifluoromethyl)pyridin-3-yl)methoxy)imino)butanamide]	0 to 80	0 to 80		
CCN(C(=O)CC/C(C)=N/OCC1CC1(F)F)c1cn(-c2cccnc2)nc1Cl (mixture of isomers) [Compound F72, (E/Z)-N-(3-chloro-1-(pyridin-3-yl)-1H-pyrazol-4-yl)-4-(((2,2-difluorocyclopropyl)methoxy)imino)-N-ethylpentanamide]	80 to 100	80 to 100		
CCN(C(=O)CCNC(=O)Cc1ccc(F)cc1)c1cn(-c2cccnc2)nc1Cl [Compound F46, N-(3-Chloro-1-(pyridin-3-yl)-1H-pyrazol-4-yl)-N-ethyl-3-(2-(4-fluorophenyl)acetamido) propanamide]	0 to 80	80 to 100		
CCN(C(=O)CC/C(C)=N/Oc1cccc(C(F)(F)F)n1)c1cn(-c2cccnc2)nc1Cl [Compound F59, (E/Z)-N-(3-Chloro-1-(pyridin-3-yl)-1H-pyrazol-4-yl)-N-ethyl-4-(((6-(trifluoromethyl)pyridin-2-yl)oxy)imino)pentanamide]	80 to 100	80 to 100		
CCN(C(=O)COC(C)=O)c1cn(-c2cccnc2)nc1Cl [FA72, 2-((3-Chloro-1-(pyridin-3-yl)-1H-pyrazol-4-yl)(ethyl)amino)-2-oxoethyl acetate]	0 to 80	80 to 100		
CCN(C(=O)C1CN(C(C)=O)C1)c1cn(-c2cccnc2)nc1Cl [Compound P23, 1-Acetyl-N-(3-chloro-1-(pyridin-3-yl)-1H-pyrazol-4-yl)-N-ethylazetidine-3-carboxamide]	80 to 100	80 to 100		
CCN(C(=O)CCC(=O)N(C)CC1CC1)c1cn(-c2cccnc2)nc1Cl [Compound F30, N1-(3-Chloro-1-(pyridin-3-yl)-1H-pyrazol-4-yl)-N4-(cyclopropylmethyl)-N1-ethyl-N4-methylsuccinamide]	80 to 100	80 to 100		
CCN(C(=O)CCC(=O)N(C)CC(F)(F)F)c1cn(-c2cccnc2)nc1Cl [Compound F85, N1-(3-Chloro-1-(pyridin-3-yl)-1H-pyrazol-4-yl)-N1-ethyl-N4-methyl-N4-(2,2,2-trifluoroethyl) succinamide]	80 to 100	80 to 100		
CN(C(=O)CN1CCCCCC1=O)c1cn(-c2cccnc2)nc1Cl [Compound F22, N-(3-Chloro-1-(pyridin-3-yl)-1H-pyrazol-4-yl)-N-methyl-2-(2-oxoazepan-1-yl)acetamide]	0 to 80	80 to 100		
CCN(C(=O)C(C)OC(=O)N(C)C)c1cn(-c2cccnc2)nc1Cl (stereo not shown) [Compound F93, 1-((3-chloro-1-(pyridin-3-yl)-1H-pyrazol-4-yl)(ethyl)amino)-1-oxopropan-2-yl dimethylcarbamate]			80 to 100	80 to 100
CCN(C(=O)CC1CN(Cc2ccc(C(F)(F)F)nc2)C1=O)c1cn(-c2cccnc2)nc1Cl (stereo not shown) [Compound F117]	80 to 100	80 to 100		
CCN(C(=O)CCC(=O)NC1CC1C(F)(F)F)c1cn(-c2cccnc2)nc1Cl (stereo not shown) [Compound F54, N1-(3-Chloro-1-(pyridin-3-yl)-1H-pyrazol-4-yl)-N1-ethyl-N4-(2-(trifluoromethyl)cyclopropyl) succinamide]	80 to 100	80 to 100		
CCN(C(=O)CCC1CCNC1=O)c1cn(-c2cccnc2)nc1Cl (stereo not shown) [Compound F131, N-(3-chloro-1-(pyridin-3-yl)-1H-pyrazol-4-yl)-N-ethyl-3-(2-oxopyrrolidin-3-yl)propanamide]	80 to 100	80 to 100		
CCN(C(=O)CCC1CN(Cc2ccc(C(F)(F)F)nc2)C1=O)c1cn(-c2cccnc2)nc1Cl (stereo not shown) [Compound F91, N-(3-Chloro-1-(pyridin-3-yl)-1H-pyrazol-4-yl)-N-ethyl-3-(2-oxo-1-((6-(trifluoromethyl)pyridin-3-yl)methyl)azetidin-3-yl)propanamide]	80 to 100	80 to 100		
CCN(C(=O)CCC(=O)O)c1cn(-c2cccnc2)nc1Cl [Compound C1, 4-((3-chloro-1-(pyridin-3-yl)-1H-pyrazol-4-yl)(ethyl)amino)-4-oxobutanoic acid]	< 0	0 to 80		
CCN(C(=O)CN(C)C(=O)OC(C)(C)C)c1cn(-c2cccnc2)nc1Cl [Compound F4, tert-Butyl (2-((3-chloro-1-(pyridin-3-yl)-1H-pyrazol-4-yl)(ethyl)amino)-2-oxoethyl)(methyl)carbamate]			80 to 100	80 to 100
CCN(C(=O)CCNC)c1cn(-c2cccnc2)nc1Cl [Compound C11, N-(3-chloro-1-(pyridin-3-yl)-1H-pyrazol-4-yl)-N-ethyl-3-(methylamino)propanamide]	0 to 80	80 to 100		
CCN(C(=O)C1CCCN(C(C)=O)C1)c1cn(-c2cccnc2)nc1Cl (stereo not shown) [FA45, 1-Acetyl-N-(3-chloro-1-(pyridin-3-yl)-1H-pyrazol-4-yl)-N-ethylpiperidine-3-carboxamide]	80 to 100	0 to 80		
O=C1CCCN1CC(=O)N(CC1CC1)c1cn(-c2cccnc2)nc1Cl [Compound F98, N-(3-chloro-1-(pyridin-3-yl)-1H-pyrazol-4-yl)-N-(cyclopropylmethyl)-2-(2-oxopyrrolidin-1-yl)acetamide]	80 to 100	80 to 100		
CCN(C(=O)CN(C)C(=O)CCC(F)(F)F)c1cn(-c2cccnc2)nc1Cl [Compound F5, N-(2-((3-Chloro-1-(pyridin-3-yl)-1H-pyrazol-4-yl)(ethyl)amino)-2-oxoethyl)-4,4,4-trifluoro-N-methylbutanamide]	80 to 100	80 to 100		
CCN(C(=O)C1CN(C(=O)CCC#N)C1)c1cn(-c2cccnc2)nc1Cl [FA16, N-(3-Chloro-1-(pyridin-3-yl)-1H-pyrazol-4-yl)-1-(3-cyanopropanoyl)-N-ethylazetidine-3-carboxamide]	0 to 80	0 to 80		
